{
  "source": "paper PMC8458281",
  "about": "“Computational modeling and experimental validation of the EPI-X4/CXCR4 complex allows rational design of small peptide antagonists” (Communications Biology, 2021)",
  "format_in_all_cases": "binding, human",
  "key": {"CXCR4 D97T": {"test_system": "CXCR4 D97T", "assay": "12G5 antibody competition, 293T cells transfected with CXCR4 D97T", "details": "IC50 on CXCR4 D97T relative to wt", "method": "(§1) Fig. 4 The interactions of EPI-X4 and the EPI-X4 derivatives WSC02 and JM#21 with point-mutated CXCR4 were assessed by an antibody competition assay. Amino acid substitutions were introduced in the sequence of CXCR4 by site-directed mutagenesis, cloned into an IRES-eGFP expression vector, and transfected into 293 T cells. Afterward, cells were incubated with serially diluted EPI-X4 (a, b), WSC02 (c, d), or JM#21 (e, f) in presence of a constant concentration of CXCR4 specific antibody (clone 12G5). After 2 h, bound antibody was analyzed by flow cytometry. a, c, e) Representative dose-dependent replacement of 12G5 antibody by peptides. b, d, f) IC50 values were calculated by nonlinear regression. Shown are data derived from at least three individual experiments ± SEM. IC50 values were set to 1000 µM (EPI-X4 and WSC02) or 100 µM (JM#21) if the value exceeds the maximally used concentration. *p ≤ 0.05, ***p ≤ 0.001 (one-way ANOVA for comparison with wt). For IC50 values see Table 1. For all binding curves see also Fig. S8.\n(§2) Mutated CXCR4 constructs were transfected into 293 T cells that have a very low endogenous expression level of wild-type CXCR4. Transfected cells were then analyzed for CXCR4 surface expression (Fig. S5a) and EPI-X4 binding using a flow cytometry-based antibody competition assay (Fig. S5b, c)[33]. […]"}, "CXCR4 E288D": {"test_system": "CXCR4 E288D", "assay": "12G5 antibody competition, 293T cells transfected with CXCR4 E288D", "details": "IC50 on CXCR4 E288D relative to wt", "source_text": "The human CXCR4 gene (isoform 1 or b, NCBI Reference Sequence: NP_003458.1, UniProtKB/Swiss-Prot: P61073-1) was amplified by PCR of the pTrip_GFP_CXCR4 vector (kindly provided by Prof. Françoise Bachelerie, Paris, France) by generating the flanking single cutter sites NheI and HindIII. The PCR fragment was ligated in the empty pcDNA3.1(+) vector (Life Technologies GmbH, Darmstadt). Afterward, the IRES-eGFP cassette of the proviral clone pBR_NL4-3_IRES-eGFP[44] was PCR-amplified with EcoRI and NotI single cutter sites and ligated in the multiple cloning site after CXCR4. […]\nTo test for peptide interaction with CXCR4, 50,000 SupT1 cells were seeded in 96-well microtiter plates in PBS supplemented with 1% FCS, the buffer was removed and cells were precooled at 4 °C. […] Afterward, the unbound antibody was removed and cells analyzed by flow cytometry. The mean fluorescence intensity (MFI) was normalized to the PBS control. […] IC50 values were determined by nonlinear regression using GraphPad Prism. […] For analysis, after flow cytometry, eGFP expressing cells were gated and further analyzed. CXCR4 expression levels and antibody binding to CXCR4 was determined using the CXCR4 antibody clones 12G5 (binds to the second ECL loop) (#555976, BD PharmingenTM) and 1D9 (binds to the N-terminus) (#551510, BD PharmingenTM) (Supplement Figure S5). […]"}, "CXCR4 E277A": {"test_system": "CXCR4 E277A", "assay": "12G5 antibody competition, 293T cells transfected with CXCR4 E277A", "details": "IC50 on CXCR4 E277A relative to wt", "method": "as §1, §2"}},
  "data": [
    {"sequence": "IVRWSKKVPCVS [WSC02, first-generation C-terminally truncated 12-mer derivative of EPI-X4 with four substitutions]", "values": [
      {"measurement": "Fold change", "setting": "CXCR4 D97T", "value": 31},
      {"measurement": "Fold change", "setting": "CXCR4 E288D", "value": 74},
      {"measurement": "Fold change", "setting": "CXCR4 E277A", "value": 0.7}
    ]}
  ]
}
